Results from ChEMBL document CHEMBL1150917, “Chemical constituents from Cassytha filiformis II” (1998).
Active and inactive are the calls of the source. The rule behind the calls is not given here.

Assays:
Platelet [1] = assay: Inhibition of PAF-induced platelet aggregation in rabbit platelet at 100 uM relative to control; format: functional, Oryctolagus cuniculus; design: scale not given: the % may be the effect or the level left
Platelet [2] = assay: Inhibition of arachidonic acid-induced platelet aggregation in rabbit platelet at 100 uM relative to control; format: functional, Oryctolagus cuniculus; design: scale not given: the % may be the effect or the level left
Platelet [3] = assay: Inhibition of collagen-induced platelet aggregation in rabbit platelet at 100 uM relative to control; format: functional, Oryctolagus cuniculus; design: scale not given: the % may be the effect or the level left
Platelet [4] = assay: Inhibition of PAF-induced platelet aggregation in rabbit platelet at 50 uM relative to control; format: functional, cell-based; conditions: Oryctolagus cuniculus
Platelet [5] = assay: Inhibition of collagen-induced platelet aggregation in rabbit platelet at 50 uM relative to control; format: functional, cell-based; conditions: Oryctolagus cuniculus
Platelet [6] = assay: Inhibition of arachidonic acid-induced platelet aggregation in rabbit platelet at 50 uM relative to control; format: functional, cell-based; conditions: Oryctolagus cuniculus
Platelet [7] = assay: Inhibition of ADP-induced platelet aggregation in rabbit platelet at 50 uM relative to control; format: functional, cell-based; conditions: Oryctolagus cuniculus
Platelet [8] = assay: Inhibition of ADP-induced platelet aggregation in rabbit platelet at 100 uM relative to control; format: functional, Oryctolagus cuniculus; design: scale not given: the % may be the effect or the level left
Platelet [9] = assay: Inhibition of arachidonic acid-induced platelet aggregation in rabbit platelet at 25 uM relative to control; format: functional, Oryctolagus cuniculus; design: scale not given: the % may be the effect or the level left
Platelet [10] = assay: Inhibition of collagen-induced platelet aggregation in rabbit platelet at 25 uM relative to control; format: functional, Oryctolagus cuniculus; design: scale not given: the % may be the effect or the level left
Platelet [11] = assay: Inhibition of PAF-induced platelet aggregation in rabbit platelet at 25 uM relative to control; format: functional, Oryctolagus cuniculus; design: scale not given: the % may be the effect or the level left
Platelet [12] = assay: Inhibition of ADP-induced platelet aggregation in rabbit platelet at 25 uM relative to control; format: functional, Oryctolagus cuniculus; design: scale not given: the % may be the effect or the level left
Platelet [13] = assay: Inhibition of arachidonic acid-induced platelet aggregation in rabbit platelet at 20 uM relative to control; format: functional, cell-based; conditions: Oryctolagus cuniculus

| Structure (SMILES) | Activity (Platelet [1]) [%] | Activity (Platelet [2]) [%] | Activity (Platelet [3]) [%] | Activity (Platelet [4]) | Activity (Platelet [5]) | Activity (Platelet [6]) | Activity (Platelet [7]) | Activity (Platelet [8]) [%] | Activity (Platelet [9]) [%] | Activity (Platelet [10]) [%] | Activity (Platelet [11]) [%] | Activity (Platelet [12]) [%] | Activity (Platelet [13]) |
| --- | --- | --- | --- | --- | --- | --- | --- | --- | --- | --- | --- | --- | --- |
| COc1cc2c(cc1OC)-c1c(OC)c(O)cc3c1[C@H](C2)N(C)CC3 [PREDICENTRINE] | 74 | 0 | 0 | – | – | – | – | – | – | – | – | – | – |
| COC(=O)N1CCc2cc3c(c4c2[C@@H]1Cc1cc(O)c(OC)cc1-4)OCO3 [CATHAFILINE] | – | 0 | – | Active | Active | Active | Active | – | – | – | – | – | – |
| COC(=O)N1CCc2c(OC)c3c(c4c2[C@@H]1Cc1cc(O)c(OC)cc1-4)OCO3 [CATHAFORMINE] | 61.5 | 0 | 7.6 | Active | Active | Active | Active | – | – | – | – | – | – |
| COc1cc2c(cc1O)C[C@@H]1NCCc3cc4c(c-2c31)OCO4 [ACTINODAPHNINE] | 0 | 0 | 0 | Active | Active | Active | Active | 0 | – | – | – | – | – |
| CC(=O)Oc1ccccc1C(=O)O [ASPIRIN] | – | – | – | – | – | – | – | – | 0 | 87.8 | 90.5 | 77.9 | – |
| COc1cc2c(cc1O)C[C@H]1c3c(cc4c(c3-2)OCO4)CCN1C [CASSYTHICINE] | 68.1 | 0 | 0 | – | – | – | – | 0 | – | – | – | – | Active |
| COc1cc2c(cc1OC)-c1c3c(c(OC)c4c1[C@H](C2)N(C)CC4)OCO3 [OCOTEINE] | 87.7 | 0 | 0 | – | – | – | – | – | – | – | – | – | – |
